One experiment addresses human BK2 receptor (Homo sapiens, UniProt P30411). Briefly: biochemical. Format: binding.
Experiment [1] deals with paw licking following formalin injection. The following applies: mouse, in vivo.
Experiment [2] has as its system carrageenan induced edema in the rat hind paw. The following applies: in vivo.
In experiment [3] the test system is mustard oil induced neurogenic inflammation in the rat hind paw. The settings on record: in vivo.
Experiment [4] deals with hypotensive response to bradykinin. Description: Rat Blood Pressure: hypotensive response to bradykinin. Format: in vivo. The following applies: at the dose used in the carrageenan test. On the procedure: Male rats were anesthetised with urethane, 1.25 g/kg, and cannulae were placed in the carotid artery and femoral vein for the injection and infusion of compounds and in the femoral artery for the recording of blood pressure. Standard hypotensive responses were obtained to repeated administration of bradykinin, 80 pM. These were repeated in the presence of increasing dose infusions of CP-0840. […] The selectivity of CP-0840 was assessed at a dose of 3 ug/kg/min. […] CP-0840 can be said to be a selective antagonist of bradykinin in vivo in the rat blood pressure assay (FIG. 9).

pIC50: −log10 of the molar value. Square brackets hold non-standard residues; d marks the D form. Peptide text beside a SMILES is read from it. * marks the point of attachment. X21 = CN1CC[C@]23c4c5ccc(OCCCCCCCCCCCC(=O)*)c4O[C@H]2[C@@H](O)CC[C@H]3[C@H]1C5; Hyp = O=C(O)[C@@H]1C[C@@H](O)CN1; dTic = O=C(O)[C@H]1Cc2ccccc2CN1; 2Thi = N[C@@H](Cc1cccs1)C(=O)O; Gly(N-cHex) = O=C(O)CNC1CCCCC1

Sequence of human BK2 receptor (P30411 28-391): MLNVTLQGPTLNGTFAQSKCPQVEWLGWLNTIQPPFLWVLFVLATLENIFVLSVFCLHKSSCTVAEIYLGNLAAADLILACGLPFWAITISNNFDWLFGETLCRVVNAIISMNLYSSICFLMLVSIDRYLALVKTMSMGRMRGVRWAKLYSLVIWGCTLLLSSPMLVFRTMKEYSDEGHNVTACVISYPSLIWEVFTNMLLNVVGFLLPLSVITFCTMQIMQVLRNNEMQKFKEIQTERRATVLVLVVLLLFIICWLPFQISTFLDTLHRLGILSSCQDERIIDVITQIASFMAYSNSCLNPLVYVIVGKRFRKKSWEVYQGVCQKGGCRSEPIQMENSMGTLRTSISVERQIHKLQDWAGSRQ

What is called pIC50 is the negative decadic logarithm of the IC50, by convention in mol/L. High values mean a small IC50, low ones a large IC50. On human BK2 receptor, `CN1CC[C@]23c4c5ccc(O)c4O[C@H]2[C@@H](OCCCCCCCCCCCC(=O)N[C@H](CCCNC(=N)N)C(=O)N[C@@H](CCCNC(=N)N)C(=O)N2CCC[C@H]2C(=O)N2C[C@H](O)C[C@H]2C(=O)NCC(=O)N[C@@H](Cc2cccs2)C(=O)N[C@@H](CO)C(=O)N2Cc4ccccc4C[C@@H]2C(=O)N(CC(=O)N[C@@H](CCCNC(=N)N)C(=O)O)C2CCCCC2)CC[C@H]3[C@H]1C5` [CP 896] showed a pIC50 of 8.70.
Still for that read-out and setting: in the case of `CN1CC[C@]23c4c5ccc(O)c4O[C@H]2[C@@H](OCCCc2ccc(C(=O)N[C@H](CCCNC(=N)N)C(=O)N[C@@H](CCCNC(=N)N)C(=O)N4CCC[C@H]4C(=O)N4C[C@H](O)C[C@H]4C(=O)NCC(=O)N[C@@H](Cc4cccs4)C(=O)N[C@@H](CO)C(=O)N4Cc6ccccc6C[C@@H]4C(=O)N(CC(=O)N[C@@H](CCCNC(=N)N)C(=O)O)C4CCCCC4)cc2)C=C[C@H]3[C@H]1C5` [CP 905] it was 9.30.
Regarding `CN1CC[C@]23c4c5ccc(OCCCCCCCCCCCC(=O)N[C@H](CCCNC(=N)N)C(=O)N[C@@H](CCCNC(=N)N)C(=O)N6CCC[C@H]6C(=O)N6C[C@H](O)C[C@H]6C(=O)NCC(=O)N[C@@H](Cc6cccs6)C(=O)N[C@@H](CO)C(=O)N6Cc7ccccc7C[C@@H]6C(=O)N(CC(=O)N[C@@H](CCCNC(=N)N)C(=O)O)C6CCCCC6)c4O[C@H]2[C@@H](O)CC[C@H]3[C@H]1C5` [CP 695], the pIC50 at human BK2 receptor is 8.90.
For the compound `CN1CC[C@]23c4c5ccc(OCCCCCCCCCCCC(=O)NCCCC[C@H](NC(=O)[C@H](N)CCCNC(=N)N)C(=O)N6CCC[C@H]6C(=O)N6C[C@H](O)C[C@H]6C(=O)NCC(=O)N[C@@H](Cc6cccs6)C(=O)N[C@@H](CO)C(=O)N6Cc7ccccc7C[C@@H]6C(=O)N(CC(=O)N[C@@H](CCCNC(=N)N)C(=O)O)C6CCCCC6)c4O[C@H]2[C@@H](O)CC[C@H]3[C@H]1C5` [CP 723] (H-[dR]K(X21)P[Hyp]G[2Thi]S[dTic][Gly(N-cHex)]R-OH), the pIC50 against human BK2 receptor is 9.40.
In the case of `CN1CC[C@]23c4c5ccc(OCCCCCCCCCCCC(=O)NCCCC[C@H](NC(=O)CNC(=O)[C@@H]6C[C@@H](O)CN6C(=O)[C@@H]6CCCN6C(=O)[C@H](CCCNC(=N)N)NC(=O)[C@H](N)CCCNC(=N)N)C(=O)N[C@@H](CO)C(=O)N6Cc7ccccc7C[C@@H]6C(=O)N(CC(=O)N[C@@H](CCCNC(=N)N)C(=O)O)C6CCCCC6)c4O[C@H]2[C@@H](O)CC[C@H]3[C@H]1C5` [CP 831] (H-[dR]RP[Hyp]GK(X21)S[dTic][Gly(N-cHex)]R-OH), the negative logarithm of the IC50 (pIC50) on human BK2 receptor was 6.90. This pIC50 lies 2.50 log units lower than the previous one.
For the compound `CN1CC[C@]23c4c5ccc(O)c4O[C@H]2[C@@H](OCCCCCC(=O)N[C@H](CCCNC(=N)N)C(=O)N[C@@H](CCCNC(=N)N)C(=O)N2CCC[C@H]2C(=O)N2C[C@H](O)C[C@H]2C(=O)NCC(=O)N[C@@H](Cc2cccs2)C(=O)N[C@@H](CO)C(=O)N2Cc4ccccc4C[C@@H]2C(=O)N(CC(=O)N[C@@H](CCCNC(=N)N)C(=O)O)C2CCCCC2)CC[C@H]3[C@H]1C5` [CP 900], the pIC50 on human BK2 receptor is 8.80.
`CN1CC[C@]23c4c5ccc(OCCCCCCCCCCCC(=O)NCCCC[C@H](NC(=O)[C@@H]6CCCN6C(=O)[C@H](CCCNC(=N)N)NC(=O)[C@H](N)CCCNC(=N)N)C(=O)NCC(=O)N[C@@H](Cc6cccs6)C(=O)N[C@@H](CO)C(=O)N6Cc7ccccc7C[C@@H]6C(=O)N(CC(=O)N[C@@H](CCCNC(=N)N)C(=O)O)C6CCCCC6)c4O[C@H]2[C@@H](O)CC[C@H]3[C@H]1C5` [CP 841] (H-[dR]RPK(X21)G[2Thi]S[dTic][Gly(N-cHex)]R-OH): the pIC50 at human BK2 receptor was 7.90.
On the same count and under the same terms, in the case of `CN1CC[C@]23c4c5ccc(OCCCCCCCCCCCC(=O)NCCCC[C@H](NC(=O)[C@@H]6C[C@@H](O)CN6C(=O)[C@@H]6CCCN6C(=O)[C@H](CCCNC(=N)N)NC(=O)[C@H](N)CCCNC(=N)N)C(=O)N[C@@H](Cc6cccs6)C(=O)N[C@@H](CO)C(=O)N6Cc7ccccc7C[C@@H]6C(=O)N(CC(=O)N[C@@H](CCCNC(=N)N)C(=O)O)C6CCCCC6)c4O[C@H]2[C@@H](O)CC[C@H]3[C@H]1C5` [CP 853] (H-[dR]RP[Hyp]K(X21)[2Thi]S[dTic][Gly(N-cHex)]R-OH) it was 7.20; in that of `CN1CC[C@]23c4c5ccc(OCCCCCCCCCCCC(=O)NCCCC[C@H](NC(=O)[C@H](CCCNC(=N)N)NC(=O)[C@H](N)CCCNC(=N)N)C(=O)N6C[C@H](O)C[C@H]6C(=O)NCC(=O)N[C@@H](Cc6cccs6)C(=O)N[C@@H](CO)C(=O)N6Cc7ccccc7C[C@@H]6C(=O)N(CC(=O)N[C@@H](CCCNC(=N)N)C(=O)O)C6CCCCC6)c4O[C@H]2[C@@H](O)CC[C@H]3[C@H]1C5` [CP 851] (H-[dR]RK(X21)[Hyp]G[2Thi]S[dTic][Gly(N-cHex)]R-OH), 7.40; in that of `CN1CC[C@]23c4c5ccc(OCc6ccc(C(=O)NCCC(=O)Nc7ccc(CC(=O)N[C@H](CCCNC(=N)N)C(=O)N[C@@H](CCCNC(=N)N)C(=O)N8CCC[C@H]8C(=O)N8C[C@H](O)C[C@H]8C(=O)NCC(=O)N[C@@H](Cc8cccs8)C(=O)N[C@@H](CO)C(=O)N8Cc9ccccc9C[C@@H]8C(=O)N(CC(=O)N[C@@H](CCCNC(=N)N)C(=O)O)C8CCCCC8)cc7)cc6)c4O[C@H]2[C@@H](O)C=C[C@H]3[C@H]1C5` [CP 836], 8.90.
Consider `CN1CC[C@]23c4c5ccc(O)c4O[C@H]2[C@@H](OCc2ccc(C(=O)N[C@H](CCCNC(=N)N)C(=O)N[C@@H](CCCNC(=N)N)C(=O)N4CCC[C@H]4C(=O)N4C[C@H](O)C[C@H]4C(=O)NCC(=O)N[C@@H](Cc4cccs4)C(=O)N[C@@H](CO)C(=O)N4Cc6ccccc6C[C@@H]4C(=O)N(CC(=O)N[C@@H](CCCNC(=N)N)C(=O)O)C4CCCCC4)cc2)C=C[C@H]3[C@H]1C5` [CP 906], for which the pIC50 against human BK2 receptor is 9.30.
The same measure, in the same setting: in the case of `CN1CC[C@]23c4c5ccc(OCCCCCCCCCCCCCCC(=O)N[C@H](CCCNC(=N)N)C(=O)N[C@@H](CCCNC(=N)N)C(=O)N6CCC[C@H]6C(=O)N6C[C@H](O)C[C@H]6C(=O)NCC(=O)N[C@@H](Cc6cccs6)C(=O)N[C@@H](CO)C(=O)N6Cc7ccccc7C[C@@H]6C(=O)N(CC(=O)N[C@@H](CCCNC(=N)N)C(=O)O)C6CCCCC6)c4O[C@H]2[C@@H](O)CC[C@H]3[C@H]1C5` [CP 844] it was 8.50.
“D-Arg-Arg-Pro-Hyp-Gly-Thi-Ser-D-Tic-NChg-Arg [CP-0597]”: in experiment [1], the “effect on first and second phase responses (paw licking time)” value is recorded as “no significant effect”. In experiment [2], the “Percentage inhibition of the carrageenan paw edema, 3 h” value turned out to be 66.3 and the “Percentage inhibition of the carrageenan paw edema, 6 h” value was 0. Moreover, in experiment [2] (sc), the “effect on carrageenan edema response” value is recorded as “significant inhibition from 0-3 h”. Further, in experiment [3], the “effect on mustard oil edema response (Evan's blue dye)” value is recorded as “without effect”. Besides, the “duration of action against blood pressure responses to bradykinin” value in experiment [4] was “greater than 6 h”.
Take `CN1CC[C@]23c4c5ccc(O)c4O[C@H]2[C@@H](OCCCc2cccc(C(=O)N[C@H](CCCNC(=N)N)C(=O)N[C@@H](CCCNC(=N)N)C(=O)N4CCC[C@H]4C(=O)N4C[C@H](O)C[C@H]4C(=O)NCC(=O)N[C@@H](Cc4cccs4)C(=O)N[C@@H](CO)C(=O)N4Cc6ccccc6C[C@@H]4C(=O)N(CC(=O)N[C@@H](CCCNC(=N)N)C(=O)O)C4CCCCC4)c2)C=C[C@H]3[C@H]1C5` [CP 902]: on human BK2 receptor, the negative-log IC50 (pIC50) is 9.40.
On human BK2 receptor, `CN1CC[C@]23c4c5ccc(OCc6cccc(C(=O)NCCC(=O)Nc7ccc(CC(=O)N[C@H](CCCNC(=N)N)C(=O)N[C@@H](CCCNC(=N)N)C(=O)N8CCC[C@H]8C(=O)N8C[C@H](O)C[C@H]8C(=O)NCC(=O)N[C@@H](Cc8cccs8)C(=O)N[C@@H](CO)C(=O)N8Cc9ccccc9C[C@@H]8C(=O)N(CC(=O)N[C@@H](CCCNC(=N)N)C(=O)O)C8CCCCC8)cc7)c6)c4O[C@H]2[C@@H](O)C=C[C@H]3[C@H]1C5` [CP 862] had a negative-log IC50 (pIC50) of 9.00.

Source of the values: patent publication US5843900A (priority 1995, dated 1998).
